Here are results for four compounds from US10988474B2, “Compounds acting at multiple prostaglandin receptors giving a general anti-inflammatory response” (ALLERGAN, INC., priority 2011, dated 2021).

In general, Kb refers to the affinity of an antagonist, worked out from how it opposes an agonist.

Holding throughout (assay type): cell-based
In test [1] the target is T1, human prostanoid IP receptor (Homo sapiens, UniProt P43119).
T1 construct: expressed in transfected cells
Kind of test: FLIPR Ca2+ signaling PG antagonist assay, IP stable cell line. As to conditions: HEK-293 EBNA cells, human recombinant IP, no exogenous G-protein; standard agonist Cicaprost. On the procedure: (§1) The above compounds were tested for PG antagonist activity as follows using human recombinant prostanoid receptor (DP1, EP1-4, FP, IP and TP) stable cell lines: In order to measure the response of Gs and Gi coupled prostanoid receptors as a Ca^2+ signal, chimeric G protein cDNAs were used. Stable cell lines over-expressing human prostanoid DP1, EP1-4, FP, IP, and TP receptors were established as follows:
(§2) Briefly, human prostanoid DP1, EP2, and EP4 receptor cDNAs were co-transfected with chimeric Gqs cDNA containing a haemagglutanin (HA) epitope; human prostanoid EP3 receptors were co-transfected with chimeric Gqi-HA; human EP1, FP, IP, and TP receptor cDNAs were expressed with no exogenous G-proteins. Gqs and Gqi chimeric cDNAs (Molecular Devices, Sunnyvale, Calif., U.S.A.), as well as cDNAs of prostanoid receptors, were cloned into a pCEP4 vector with a hygromycin B selection marker. Transfection into HEK-293 EBNA (Epstein-Barr virus nuclear antigen) cells was achieved by the FuGENE 6 transfection Reagent (Roche Applied Science, Indianapolis, Ind., USA). Stable transfectants were selected according to hygromycin resistance. Because Gqs and Gqi contained an HA epitope, G-protein expression was detected by Western blotting analysis using anti-mouse HA monoclonal antibody and horseradish peroxidase (HRP)-conjugated secondary antibody, while functional expression of prostanoid receptors was detected by FLIPR screening (Matias et al., 2004). These stable cell lines were validated using previously published antagonists at 10 μM against serial dilutions of standard agonists by FLIPR functional assays for Ca^2+ Signaling (as described below).
(§3) Ca^2+ signaling studies were performed using a FLIPR TETRA system (Molecular Devices, Sunnyvale, Calif., USA) in the 384-format. This is a high-throughput instrument for cell-based assays to monitor Ca^2+ signaling associated with GPCRs and ion channels. Cells were seeded at a density of 5×10^4 cells/well in BioCoat poly-D-lysine coated, black wall, clear bottom 384-well plates (BD Biosciences, Franklin lakes, NJ, USA) and allowed to attach overnight in an incubator at 37° C. The cells were then washed twice with HBSS-HEPES buffer (Hanks' balanced salt solution without bicarbonate and phenol red, 20 mM HEPES, pH 7.4) using an ELx405 Select CW Microplate Washer (BioTek, Winooski, Vt., USA). After 60 min of dye-loading in the dark using the Ca^2+-sensitive dye Fluo-4AM (Invitrogen, Carlsbad, Calif., USA), at a final concentration of 2×10^−6M, the plates were washed 4 times with HBSS-HEPES buffer to remove excess dye and leaving 50 μl of buffer in each well. The plates were then placed in the FLIPR TETRA instrument and allowed to equilibrate at 37° C. Compounds were added in a 25 μl volume to each well to give final concentrations of 0.1 μM, 0.3 μM, 1 μM, 3 μM, 10 μM, and 30 μM; or 0.067 μM, 0.1 μM, 0.2 μM, 0.3 μM, 0.67 μM, and 1 μM for cells over-expressing TP receptors. After 4.5 minutes, a 7-point serial dilution of the standard agonist for the corresponding receptor, in a 25 μl volume was injected at the final concentrations from 10^−11M to 10^−5M in 10-fold serial dilution increments for cells expressing human recombinant DP1, EP1, EP2, EP3, EP4, FP, and IP receptors. The dose range for the standard agonist for human recombinant TP receptors was from 10^−12M to 10^−6M. HBSS-HEPES buffer was used as the negative control for the standard agonists. Cells were excited with LED (light emitting diode) excitation at 470-495 nm and emission was measured through an emission filter at 515-575 nm. Assay plates were read for 3.5 minutes using the FLIPR^TETRA. The peak increase in fluorescence intensity was recorded for each well. On each plate, negative controls, dose response of positive controls, and co-treatments of antagonist-agonist for each dose were in triplicates. Standard agonists were as follows: DP=BW 245C, EP1-EP4=PGE2, FP=17-phenyl-PGF2α, IP=Cicaprost, and TP=U-46619. […]

Test [2] concerns the target T2, human prostanoid TP receptor (Homo sapiens, UniProt P21731).
T2 construct: expressed in transfected cells
T2 sequence (P21731 1-343): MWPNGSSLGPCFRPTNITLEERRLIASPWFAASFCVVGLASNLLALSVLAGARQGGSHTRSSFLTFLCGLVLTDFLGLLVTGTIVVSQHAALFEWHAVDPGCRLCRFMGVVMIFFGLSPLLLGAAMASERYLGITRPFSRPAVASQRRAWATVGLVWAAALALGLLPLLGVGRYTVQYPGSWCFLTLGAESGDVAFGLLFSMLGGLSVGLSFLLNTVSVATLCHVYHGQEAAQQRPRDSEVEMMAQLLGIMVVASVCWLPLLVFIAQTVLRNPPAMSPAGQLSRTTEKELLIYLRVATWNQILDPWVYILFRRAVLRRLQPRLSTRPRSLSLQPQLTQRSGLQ
Kind of test: FLIPR Ca2+ signaling PG antagonist assay, TP stable cell line. The following applies: HEK-293 EBNA cells, human recombinant TP, no exogenous G-protein; standard agonist U-46619. On the procedure: as §1, §2, §3

The target of test [3] is T3, human prostanoid FP receptor (Homo sapiens, UniProt P43088).
T3 construct: expressed in transfected cells
T3 sequence (P43088 whole entry): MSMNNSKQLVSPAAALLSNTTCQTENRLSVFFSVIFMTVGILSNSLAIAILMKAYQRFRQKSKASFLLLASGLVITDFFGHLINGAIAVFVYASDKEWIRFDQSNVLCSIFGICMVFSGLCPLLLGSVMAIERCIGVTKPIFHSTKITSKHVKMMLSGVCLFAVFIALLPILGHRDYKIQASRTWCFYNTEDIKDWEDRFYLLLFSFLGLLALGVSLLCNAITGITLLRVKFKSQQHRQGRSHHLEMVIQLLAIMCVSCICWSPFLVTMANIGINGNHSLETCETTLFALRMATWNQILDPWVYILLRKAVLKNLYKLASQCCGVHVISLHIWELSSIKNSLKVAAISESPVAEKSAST
In words: FLIPR Ca2+ signaling PG antagonist assay, FP stable cell line. The following applies: HEK-293 EBNA cells, human recombinant FP, no exogenous G-protein; standard agonist 17-phenyl-PGF2α. On the procedure:
as §1, §2, §3

The target in test [4] is T4, human prostanoid DP1 receptor (Homo sapiens, UniProt Q13258).
T4 construct: expressed in transfected cells
T4 sequence (Q13258 1-359): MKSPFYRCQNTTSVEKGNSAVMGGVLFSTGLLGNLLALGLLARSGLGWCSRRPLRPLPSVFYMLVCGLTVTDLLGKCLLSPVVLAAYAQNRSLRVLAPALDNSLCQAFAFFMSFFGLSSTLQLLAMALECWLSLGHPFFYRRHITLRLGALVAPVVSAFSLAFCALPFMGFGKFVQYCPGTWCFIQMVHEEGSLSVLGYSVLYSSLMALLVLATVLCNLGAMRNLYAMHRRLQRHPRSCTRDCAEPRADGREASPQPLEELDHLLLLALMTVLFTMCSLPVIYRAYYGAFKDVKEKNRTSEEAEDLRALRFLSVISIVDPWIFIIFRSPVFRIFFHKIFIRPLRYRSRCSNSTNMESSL
Kind of test: FLIPR Ca2+ signaling PG antagonist assay, DP1 stable cell line. The following applies: HEK-293 EBNA cells, human recombinant DP1 with chimeric Gqs; standard agonist BW 245C; read-out: DP (Kb, PG antagonist activity). On the procedure: as §1, §2, §3

T1 sequence (P43119 whole entry): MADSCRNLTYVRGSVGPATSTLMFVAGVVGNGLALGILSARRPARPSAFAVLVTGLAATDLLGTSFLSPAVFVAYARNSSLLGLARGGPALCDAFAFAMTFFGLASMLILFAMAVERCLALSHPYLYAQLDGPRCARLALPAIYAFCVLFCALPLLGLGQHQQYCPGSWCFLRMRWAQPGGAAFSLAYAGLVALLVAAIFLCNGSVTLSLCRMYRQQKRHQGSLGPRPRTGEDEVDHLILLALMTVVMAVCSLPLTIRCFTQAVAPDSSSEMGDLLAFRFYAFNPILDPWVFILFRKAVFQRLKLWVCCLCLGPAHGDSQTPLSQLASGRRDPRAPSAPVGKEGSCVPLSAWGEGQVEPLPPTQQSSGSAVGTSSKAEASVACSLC

Consider “1-(5-Bromo-2-Isobutoxy-Benzyl)-1H-Pyrrolo[2,3-B]Pyridine-5-Carboxylic Acid [Example 30]”, for which the Kb was found to be 6000 nM in test [1] and 5 nM in test [2].
For the compound “1-[5-Bromo-2-(2-Ethyl-Butoxy)-Benzyl]-1H-Pyrrolo[2,3-B]Pyridine-5-Carboxylic Acid [Example 31]”, in test [1], the Kb stood at 520 nM.
As to `CC(C)COc1ccc(Br)cc1Cn1cc2ccc(C(=O)O)cc2n1` [Example 43, 2-(5-Bromo-2-Isobutoxy-Benzyl)-2H-Indazole-6-Carboxylic Acid], the Kb in test [3] turned out to be 2200 nM; in test [1] it was 4900 nM; in test [4], 2000 nM; in test [2], 110 nM.
For `CCC(CC)COc1ccc(OC(F)(F)F)cc1Cn1ccc2cc(C(=O)O)cnc21` [Example 76, 1-[2-(2-Ethyl-Butoxy)-5-Trifluoromethoxy-Benzyl]-1H-Pyrrolo[2,3-B]Pyridine-5-Carboxylic Acid], the results for the Kb in test [1] and in test [2] were 1400 nM and 20 nM, respectively.
